Source: PubChem BioAssay AID504463 (NMMLSC, 2011)
Activity calls are given as the source filed them.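 How the source made its calls: active means fluorescence span above 25 thousand equivalent fluorochrome units, or a 33 microM versus DMSO difference score above 25; inactive means the rest.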

Test system: S. cerevisiae s288c autofluorescence, flow cytometry 520 nm, 3 h
Assay: compound green fluorescence in S. cerevisiae cells – flow cytometry, strain s288c, KU SAR set 2, multiplex, artefact control for yeast TOR pathway modulator project, dose response (AID 504463)
Settings: at 33.3 µM; active compounds read high

Fluorescence change (kMESF span), inactive:
CNc1nc(NC)c([N+](=O)[O-])c(Nc2cccc(Cl)c2)n1 0.07
COc1ccccc1-c1cc(Nc2cc(C)[nH]n2)nc(NCc2ccccc2)n1 0.06
COc1cccc(-c2cc(Nc3cc(C)[nH]n3)nc(NCc3ccccc3)n2)c1 0.13
CCNc1nc(NC2CCCCC2)c([N+](=O)[O-])c(N2CCOCC2)n1 0
CCNc1nc(N)c([N+](=O)[O-])c(Nc2cccc(Cl)c2)n1 0.49
CNc1nc(N)c([N+](=O)[O-])c(Nc2cccc(Br)c2)n1 0.07
CNc1nc(NC2CCCCC2)c([N+](=O)[O-])c(N2CCOCC2)n1 0.14
CNc1nc(N)c([N+](=O)[O-])c(Nc2cccc(OC)c2)n1 0.14
CNc1nc(N)c([N+](=O)[O-])c(Nc2ccccc2F)n1 0.07
CCOC(=O)c1c(N)nc(NC)nc1Nc1cccc(F)c1 0.13
CNc1nc(N)c([N+](=O)[O-])c(Nc2cccc(Oc3ccccc3)c2)n1 0.07
COC(=O)c1cccc(-c2cc(Nc3cc(C)[nH]n3)nc(NCc3ccccc3)n2)c1 0.06
CNc1nc(N)c([N+](=O)[O-])c(Nc2ccccc2Br)n1 0.07
Cc1cc(Nc2cc(-c3ccccc3)nc(NCc3ccccc3)n2)n[nH]1 0.06
CNc1nc(N)cc(Nc2cccc(Cl)c2)n1 0.06
CNc1nc(N)c(C(=O)c2ccc(C)c(C)c2)c(Nc2cccc(Cl)c2)n1 0.07
CNc1nc(N)cc(Oc2cccc(Cl)c2)n1 0.06
O=[N+]([O-])c1c(NC2CCCCC2)nc(NCc2ccccc2)nc1N1CCOCC1 0
Cc1cc(Nc2cc(Nc3ccccc3)nc(NCc3ccccc3)n2)n[nH]1 0.07
CNc1nc(N)cc(Nc2ccccc2F)n1 0
